These results are taken from paper PMC11451537, “P2X7 receptors exhibit at least three modes of allosteric antagonism” (Science Advances, 2024).

Like-named read-outs stand apart in the source and are kept apart here.

The target in one assay is T1, hP2X4 (Homo sapiens, UniProt Q99571).
T1 sequence (Q99571 1-388): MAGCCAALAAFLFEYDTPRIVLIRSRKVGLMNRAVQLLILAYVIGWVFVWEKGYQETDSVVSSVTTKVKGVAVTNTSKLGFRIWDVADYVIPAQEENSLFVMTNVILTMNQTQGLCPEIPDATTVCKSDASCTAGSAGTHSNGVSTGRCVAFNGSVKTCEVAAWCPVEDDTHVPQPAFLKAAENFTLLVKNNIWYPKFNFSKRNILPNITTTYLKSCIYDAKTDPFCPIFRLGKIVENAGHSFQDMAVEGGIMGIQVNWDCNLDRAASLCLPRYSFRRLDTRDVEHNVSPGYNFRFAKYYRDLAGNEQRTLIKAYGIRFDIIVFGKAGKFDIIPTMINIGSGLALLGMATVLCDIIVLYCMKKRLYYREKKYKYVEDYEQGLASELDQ
As to the kind of experiment: TEVC inhibition dose-response (IC50), hP2X4 in Xenopus laevis oocytes. The format is cell-based. The conditions noted are these: 50 μM ATP, mean ± SD, triplicate. The text has this: To evaluate the inhibitory response of an antagonist for a dilution series, an initial excitatory signal was evoked at a subtype-specific concentration of ATP. Next, the antagonist was applied at a test concentration for 60 s and then coapplied at the same test concentration of the antagonist with the identical subtype-specific concentration of ATP. The antagonized signal was then normalized against the preceding excitatory signal evoked by ATP for each individual oocyte tested. The pre- and post-antagonist signals were evoked by 10 μM ATP for hP2X1, 10 μM ATP for hP2X2, 1 μM ATP for hP2X3, 50 μM ATP for hP2X4, and 100 μM ATP for P2X7. For the K297V mutation in rP2X7, pre- and post-antagonist signals were evoked by 300 μM ATP. Each dataset was then fit to a nonlinear regression named “[inhibitor] vs. response – Variable slope (four parameters)” in GraphPad Prism 9 to produce a sigmoidal curve and afford an IC50 value. Each singular condition was used to generate an average which is reported plus or minus its SD between three discrete trials.

For another assay, the target named is T2, rP2X7 (Rattus norvegicus, UniProt Q64663).
T2 sequence (Q64663 1-595): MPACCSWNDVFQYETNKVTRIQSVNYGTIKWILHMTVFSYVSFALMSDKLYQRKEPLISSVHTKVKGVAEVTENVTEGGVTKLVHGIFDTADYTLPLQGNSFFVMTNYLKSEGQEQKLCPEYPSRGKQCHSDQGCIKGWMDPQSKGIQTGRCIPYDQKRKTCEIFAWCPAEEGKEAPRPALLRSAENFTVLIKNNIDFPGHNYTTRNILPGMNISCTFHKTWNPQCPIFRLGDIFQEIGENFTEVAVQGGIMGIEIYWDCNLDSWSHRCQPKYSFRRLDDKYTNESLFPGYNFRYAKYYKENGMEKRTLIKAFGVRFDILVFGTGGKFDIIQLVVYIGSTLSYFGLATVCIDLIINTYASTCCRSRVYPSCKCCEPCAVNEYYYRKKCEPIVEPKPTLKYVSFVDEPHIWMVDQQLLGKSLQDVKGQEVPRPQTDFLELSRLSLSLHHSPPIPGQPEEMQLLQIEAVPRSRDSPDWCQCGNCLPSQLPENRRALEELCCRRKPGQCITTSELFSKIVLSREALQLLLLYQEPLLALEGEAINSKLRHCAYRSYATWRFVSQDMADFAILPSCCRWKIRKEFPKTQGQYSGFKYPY
Nature of the assay: Bio-layer interferometry (BLI), biotinylated rP2X7 on streptavidin biosensors, 2:1 Langmuir fit. Format: binding. The conditions noted are these: for kon: pH 7.4, 2:1 Langmuir model, 600-s association. Here is the method:
Using a HiTrap desalting column (Cytiva), 1 ml of diluted purified rP2X7 was desalted into PBS buffer (pH 7.4). Protein-containing fractions were combined and concentrated before adjusting the pH to 8.0 with NaHCO3. NHS-PEG12-Biotin (Thermo Fisher Scientific) was added and incubated at 23°C for 60 min while shaking. PBS was used to dilute the biotinylated sample before four cycles of dilution and concentration to ensure the removal of free NHS-PEG12-Biotin via a 100-kDa concentrator (Millipore Sigma). After the final cycle, the absorbance at 280 nm of the concentrated sample was taken to quantify the amount of biotinylated rP2X7.
A ForteBio Octet RED384 instrument with ForteBio Data Acquisition software 11.0 was used to carry out BLI experiments. The assays were performed at 30°C using 384-well tilted-bottom plates (Sartorius) while orbital shaking at 1000 RPM. Running buffer consisting of filtered (0.22 μm) PBS (pH 7.4) with 0.5 mM DDM (Anatrace). Streptavidin (SA) biosensor tips (Sartorius) were pre-equilibrated in running buffer for 20 min and loaded with 50 μg ml^−1 of biotinylated rP2X7 ligand or biocytin (Sigma-Aldrich) control for 1800s. Blocking of the loaded SA sensors using 100 μg ml^−1 of biocytin was then initiated for 150 s before washing with a running buffer for 60 s. A baseline of loaded sensors was taken in the running buffer for 120 s before dipping them into wells containing ligand dilutions (0.37 to 10 μM for methyl blue) for 600 s, and then returning the sensors to the running buffer for a 600-s disassociation step. Rate constants for association and disassociation were determined using ForteBio Data Analysis HT 11.0 evaluation software. The raw data were double reference subtracted for maximal signal between the large ligand and small analyte. Biocytin controls were the first subtraction across analyte concentrations, and the zero-analyte concentration was the second. The association rate constant (ka) and the dissociation rate constant (kd) were calculated for each interaction pair using an average of three independent assays containing at least four different concentrations that were globally fit to a 2:1 Langmuir binding model. Equilibrium dissociation constants (KD) were calculated as the ratio of kd to ka. The KD1, KD2, ka1, ka2, kd1, and kd2 values are reported as the average ± the SD of three replicate datasets for each analyte, with each dataset using at least four independent traces. The analyzed data were exported and plotted in GraphPad Prism 9.0.
Background: In BLI a coated tip is dipped into the sample, and binding shifts an interference pattern.

The mark [1] stands for this setting: 2:1 Langmuir model, 600-s dissociation.

In general, IC50 refers to the concentration at which inhibition is half-maximal. Read a high IC50 as weaker potency in that assay. At hP2X4, `O=S(=O)(O)c1ccc(N=C2C=CC(=C(c3ccc(Nc4ccc(S(=O)(=O)O)cc4)cc3)c3ccc(Nc4ccc(S(=O)(=O)O)cc4)cc3)C=C2)cc1` [methyl blue] showed an IC50 of 51000 ± 6000 nM. On rP2X7 (2:1 Langmuir model), the “share of signal of the high-affinity component (KD1)” value was determined as 67 ± 8% and the “share of signal of the low-affinity component (KD2)” value is given as 33 ± 8%. Moreover, the Kd at rP2X7 (2:1 Langmuir model, 30°C, PBS pH 7.4 with 0.5 mM DDM, ratio of kd to ka, read-out: KD1 (high-affinity binding component)) came out at 260 ± 130 nM. In addition, at rP2X7 (setting [1]), the “rate constant for dissociation kd1” value is on record as 1.1 ± 0.5 × 10^−4 s^−1 and the “rate constant for dissociation kd2” value is given as 1.3 ± 0.1 × 10^−2 s^−1. In addition, at rP2X7 (read-out: rate constant for association ka1), the kon was determined as 450 ± 2000 M⁻¹ s⁻¹. The kon on rP2X7 (read-out: rate constant for association ka2) was 9300 ± 2.3e+06 M⁻¹ s⁻¹. Also, the Kd at rP2X7 (read-out: KD2 (low-affinity binding component), 2:1 Langmuir model, 30°C, PBS pH 7.4 with 0.5 mM DDM, ratio of kd to ka) amounted to 1500 ± 200 nM.
